Usually inhibition stands for the change of the read-out against control, counted positive when it falls.

Experiment in all cases: Large panel kinase profiling
Common to all, as to type: biochemical
Holding throughout (conditions): 1 μM test article, 1 mM ATP

The target in one assay is T1, EPHA6 (Homo sapiens, UniProt Q9UF33).
T1 sequence (Q9UF33 23-1036): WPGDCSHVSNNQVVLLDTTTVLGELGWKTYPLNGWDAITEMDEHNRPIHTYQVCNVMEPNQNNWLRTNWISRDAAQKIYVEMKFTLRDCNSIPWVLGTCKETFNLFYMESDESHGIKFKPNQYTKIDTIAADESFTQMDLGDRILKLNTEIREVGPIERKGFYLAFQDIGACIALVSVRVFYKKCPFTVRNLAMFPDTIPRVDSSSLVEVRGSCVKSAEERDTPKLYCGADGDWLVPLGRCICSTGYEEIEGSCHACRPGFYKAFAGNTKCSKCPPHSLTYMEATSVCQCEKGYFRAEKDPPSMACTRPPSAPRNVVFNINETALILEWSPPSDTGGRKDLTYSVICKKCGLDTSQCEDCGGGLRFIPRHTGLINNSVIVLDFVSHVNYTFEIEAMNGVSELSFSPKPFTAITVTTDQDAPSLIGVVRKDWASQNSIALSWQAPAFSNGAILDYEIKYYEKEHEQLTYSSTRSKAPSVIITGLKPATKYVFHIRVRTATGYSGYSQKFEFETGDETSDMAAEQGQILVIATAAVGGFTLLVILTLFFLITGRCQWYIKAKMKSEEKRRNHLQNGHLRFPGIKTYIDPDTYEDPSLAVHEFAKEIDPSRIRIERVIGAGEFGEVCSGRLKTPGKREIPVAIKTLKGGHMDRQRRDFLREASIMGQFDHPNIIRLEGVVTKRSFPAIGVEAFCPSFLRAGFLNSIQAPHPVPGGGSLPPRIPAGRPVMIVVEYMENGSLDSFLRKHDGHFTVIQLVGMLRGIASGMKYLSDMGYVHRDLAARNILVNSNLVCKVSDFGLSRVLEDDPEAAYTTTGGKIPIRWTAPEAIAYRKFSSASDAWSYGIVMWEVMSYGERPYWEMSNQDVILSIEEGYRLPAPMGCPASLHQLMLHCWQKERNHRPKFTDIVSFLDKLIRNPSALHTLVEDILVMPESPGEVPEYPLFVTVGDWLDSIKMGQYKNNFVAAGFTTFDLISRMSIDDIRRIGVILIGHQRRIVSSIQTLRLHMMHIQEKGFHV
The method, then:
(§1) Large panel kinase profiling was performed at AssayQuant Technologies, Inc. 260 Cedar Hill Street, Marlborough, Mass. 01752 using the PhosphoSens® CSox-Sensor platform using 1 μM test article concentration and 1 mM ATP concentration (www.assayquant.com). Reactions were run in Corning, half-area 96-well, white flat round bottom polystyrene NBS microplates (Cat. #3642) after sealing using optically-clear adhesive film (TopSealA-Plus plate seal, PerkinElmer), applied with either a roller or a paddle to eliminate evaporation and resulting drift. The standard total reaction volume was 50 μL. All experiments were ran at 30° C. to control for fluctuations in ambient temperature. Plates were read from the top in kinetic mode (readings taken every 1 min), monitoring fluorescence intensity with filters using Ex 360 nm and Em 485 nm and a band width of 40 and 20 nm, respectively, and a gain of 80. Data analysis was performed using either Graphpad Prism or Gene Data Screener software.

In a further assay the target is T2, GRK1 (Homo sapiens, UniProt Q15835).
T2 construct: AssayQuant Technologies, Inc. (service provider)
T2 sequence (Q15835 1-563): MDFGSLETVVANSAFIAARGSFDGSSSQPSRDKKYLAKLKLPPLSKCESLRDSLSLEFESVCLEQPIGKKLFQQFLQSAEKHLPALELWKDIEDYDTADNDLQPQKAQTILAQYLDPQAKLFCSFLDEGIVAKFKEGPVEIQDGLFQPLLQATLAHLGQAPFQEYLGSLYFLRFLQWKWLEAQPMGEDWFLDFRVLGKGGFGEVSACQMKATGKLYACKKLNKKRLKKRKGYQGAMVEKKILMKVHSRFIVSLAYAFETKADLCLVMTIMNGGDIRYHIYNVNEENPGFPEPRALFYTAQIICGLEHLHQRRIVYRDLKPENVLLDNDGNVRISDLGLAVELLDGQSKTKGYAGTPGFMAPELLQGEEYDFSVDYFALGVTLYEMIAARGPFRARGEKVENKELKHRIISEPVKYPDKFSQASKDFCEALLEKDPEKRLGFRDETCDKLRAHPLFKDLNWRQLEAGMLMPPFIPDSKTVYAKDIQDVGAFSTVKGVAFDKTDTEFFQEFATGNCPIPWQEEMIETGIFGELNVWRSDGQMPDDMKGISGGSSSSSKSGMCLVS
The method, then: as §1

In the next assay the target is T3, GRK3 (Homo sapiens, UniProt P35626).
T3 construct: AssayQuant Technologies, Inc. (service provider)
T3 sequence (P35626 1-688): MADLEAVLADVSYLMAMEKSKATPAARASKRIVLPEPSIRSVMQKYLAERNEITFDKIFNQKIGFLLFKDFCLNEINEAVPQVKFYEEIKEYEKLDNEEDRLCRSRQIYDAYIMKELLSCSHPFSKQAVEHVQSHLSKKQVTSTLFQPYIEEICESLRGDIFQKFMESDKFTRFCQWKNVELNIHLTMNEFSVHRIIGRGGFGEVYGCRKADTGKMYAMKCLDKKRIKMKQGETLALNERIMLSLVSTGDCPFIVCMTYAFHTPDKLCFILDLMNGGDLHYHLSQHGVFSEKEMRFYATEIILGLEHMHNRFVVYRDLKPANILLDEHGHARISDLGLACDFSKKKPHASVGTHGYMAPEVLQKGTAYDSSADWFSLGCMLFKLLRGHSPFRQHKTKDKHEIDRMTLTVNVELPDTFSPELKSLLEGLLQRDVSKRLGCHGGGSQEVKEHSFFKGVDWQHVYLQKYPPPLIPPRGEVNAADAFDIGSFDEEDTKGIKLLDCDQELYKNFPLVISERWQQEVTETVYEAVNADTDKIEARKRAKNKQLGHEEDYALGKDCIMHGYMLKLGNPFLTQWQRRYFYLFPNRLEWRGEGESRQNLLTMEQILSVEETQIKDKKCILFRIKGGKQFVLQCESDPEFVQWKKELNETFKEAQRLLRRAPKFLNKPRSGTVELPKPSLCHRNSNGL
The method, then:
as §1

In the next assay the target is T4, MAP4K4/HGK (Homo sapiens, UniProt O95819).
T4 construct: AssayQuant Technologies, Inc. (service provider)
The method, then: as §1

For the next assay, the target named is T5, MAP4K5/KSH1 (Homo sapiens, UniProt Q9Y4K4).
T5 construct: AssayQuant Technologies, Inc. (service provider)
The method, then: as §1

Another assay addresses T6, RPS6KA3/RSK2 (Homo sapiens, UniProt P51812).
T6 construct: AssayQuant Technologies, Inc. (contract assay)
The method, then: as §1

Another assay addresses T7, SK2 (Homo sapiens, UniProt Q9H0K1).
T7 construct: AssayQuant Technologies, Inc. (contract assay)
The method, then: as §1

A further assay addresses T8, SRPK2 (Homo sapiens, UniProt P78362).
T8 construct: AssayQuant Technologies, Inc. (contract assay)
The method, then:
as §1

T7 sequence (Q9H0K1 whole entry): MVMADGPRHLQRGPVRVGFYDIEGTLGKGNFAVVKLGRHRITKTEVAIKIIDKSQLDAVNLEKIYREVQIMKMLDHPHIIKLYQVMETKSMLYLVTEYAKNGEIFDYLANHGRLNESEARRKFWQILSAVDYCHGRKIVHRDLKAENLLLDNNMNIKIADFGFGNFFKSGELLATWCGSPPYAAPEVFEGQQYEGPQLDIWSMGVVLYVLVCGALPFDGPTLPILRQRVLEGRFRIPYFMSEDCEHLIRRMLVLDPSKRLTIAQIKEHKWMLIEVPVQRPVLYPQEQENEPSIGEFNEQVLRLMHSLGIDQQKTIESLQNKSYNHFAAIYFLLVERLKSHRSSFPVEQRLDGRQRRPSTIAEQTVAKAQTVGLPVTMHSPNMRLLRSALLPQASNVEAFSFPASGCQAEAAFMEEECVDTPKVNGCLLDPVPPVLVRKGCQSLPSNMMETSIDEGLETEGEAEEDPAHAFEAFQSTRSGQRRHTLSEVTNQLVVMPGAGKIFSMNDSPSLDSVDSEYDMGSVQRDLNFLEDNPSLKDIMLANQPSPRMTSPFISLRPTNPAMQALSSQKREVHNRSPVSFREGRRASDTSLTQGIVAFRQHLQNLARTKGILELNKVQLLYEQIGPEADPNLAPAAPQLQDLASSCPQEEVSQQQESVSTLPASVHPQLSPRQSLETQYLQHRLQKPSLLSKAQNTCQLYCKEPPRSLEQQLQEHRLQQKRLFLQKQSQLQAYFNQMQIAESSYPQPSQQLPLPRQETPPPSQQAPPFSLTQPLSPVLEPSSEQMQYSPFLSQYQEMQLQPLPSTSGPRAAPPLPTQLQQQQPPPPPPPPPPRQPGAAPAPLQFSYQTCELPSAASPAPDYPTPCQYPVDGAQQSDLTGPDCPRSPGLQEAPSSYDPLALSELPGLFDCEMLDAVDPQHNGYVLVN
T4 sequence (O95819 whole entry): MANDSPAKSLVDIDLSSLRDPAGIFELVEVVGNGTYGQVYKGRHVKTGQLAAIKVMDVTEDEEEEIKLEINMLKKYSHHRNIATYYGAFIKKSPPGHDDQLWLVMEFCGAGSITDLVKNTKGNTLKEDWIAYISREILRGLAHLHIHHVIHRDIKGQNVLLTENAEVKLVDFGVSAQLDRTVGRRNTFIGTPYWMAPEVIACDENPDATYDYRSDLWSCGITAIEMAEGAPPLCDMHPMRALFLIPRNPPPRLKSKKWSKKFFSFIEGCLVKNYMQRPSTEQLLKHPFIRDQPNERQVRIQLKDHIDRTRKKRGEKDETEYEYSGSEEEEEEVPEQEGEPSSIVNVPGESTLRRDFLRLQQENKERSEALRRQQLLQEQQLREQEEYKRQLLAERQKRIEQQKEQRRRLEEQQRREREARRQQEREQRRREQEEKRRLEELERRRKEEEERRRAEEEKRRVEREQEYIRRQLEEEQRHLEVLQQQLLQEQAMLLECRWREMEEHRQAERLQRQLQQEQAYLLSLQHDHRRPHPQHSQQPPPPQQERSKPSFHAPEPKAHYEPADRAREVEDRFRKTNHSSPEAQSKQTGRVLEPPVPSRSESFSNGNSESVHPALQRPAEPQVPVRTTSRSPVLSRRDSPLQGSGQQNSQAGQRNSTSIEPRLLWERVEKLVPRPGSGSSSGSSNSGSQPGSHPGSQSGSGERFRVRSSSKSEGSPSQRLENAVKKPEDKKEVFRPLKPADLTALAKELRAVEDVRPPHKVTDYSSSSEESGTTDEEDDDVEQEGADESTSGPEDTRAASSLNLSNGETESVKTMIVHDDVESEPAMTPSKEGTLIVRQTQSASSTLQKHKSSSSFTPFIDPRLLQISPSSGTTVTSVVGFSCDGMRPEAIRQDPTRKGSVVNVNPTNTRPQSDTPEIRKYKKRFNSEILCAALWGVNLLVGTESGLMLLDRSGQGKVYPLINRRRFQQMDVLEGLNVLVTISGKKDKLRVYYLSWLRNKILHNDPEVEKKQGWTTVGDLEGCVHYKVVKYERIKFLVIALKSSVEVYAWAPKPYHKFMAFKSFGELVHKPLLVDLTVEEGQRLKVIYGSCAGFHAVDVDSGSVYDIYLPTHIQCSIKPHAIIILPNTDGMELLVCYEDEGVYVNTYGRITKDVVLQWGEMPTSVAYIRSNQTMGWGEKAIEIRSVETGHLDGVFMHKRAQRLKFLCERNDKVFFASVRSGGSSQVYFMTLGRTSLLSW
T5 sequence (Q9Y4K4 whole entry): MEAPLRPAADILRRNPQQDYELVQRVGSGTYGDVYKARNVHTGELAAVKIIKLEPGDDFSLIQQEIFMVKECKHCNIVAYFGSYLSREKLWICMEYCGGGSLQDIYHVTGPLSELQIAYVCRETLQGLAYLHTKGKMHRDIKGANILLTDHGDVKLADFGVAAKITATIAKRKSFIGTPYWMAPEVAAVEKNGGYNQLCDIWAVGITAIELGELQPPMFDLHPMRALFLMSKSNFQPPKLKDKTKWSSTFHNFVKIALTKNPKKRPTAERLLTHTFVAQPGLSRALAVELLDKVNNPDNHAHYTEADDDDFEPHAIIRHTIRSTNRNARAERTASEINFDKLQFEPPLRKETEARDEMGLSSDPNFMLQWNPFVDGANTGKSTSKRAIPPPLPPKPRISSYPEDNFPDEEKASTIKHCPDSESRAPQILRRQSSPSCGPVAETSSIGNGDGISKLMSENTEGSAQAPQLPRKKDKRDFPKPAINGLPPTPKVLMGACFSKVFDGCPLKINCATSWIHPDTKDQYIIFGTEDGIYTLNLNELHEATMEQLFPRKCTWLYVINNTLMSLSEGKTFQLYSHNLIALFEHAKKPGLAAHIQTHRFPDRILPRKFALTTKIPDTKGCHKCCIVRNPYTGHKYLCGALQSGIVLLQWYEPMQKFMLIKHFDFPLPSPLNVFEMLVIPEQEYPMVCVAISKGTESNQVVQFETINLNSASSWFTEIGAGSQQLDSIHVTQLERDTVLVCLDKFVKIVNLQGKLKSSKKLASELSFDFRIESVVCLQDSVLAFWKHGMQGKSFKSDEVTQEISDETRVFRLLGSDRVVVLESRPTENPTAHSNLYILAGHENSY
T6 sequence (P51812 whole entry): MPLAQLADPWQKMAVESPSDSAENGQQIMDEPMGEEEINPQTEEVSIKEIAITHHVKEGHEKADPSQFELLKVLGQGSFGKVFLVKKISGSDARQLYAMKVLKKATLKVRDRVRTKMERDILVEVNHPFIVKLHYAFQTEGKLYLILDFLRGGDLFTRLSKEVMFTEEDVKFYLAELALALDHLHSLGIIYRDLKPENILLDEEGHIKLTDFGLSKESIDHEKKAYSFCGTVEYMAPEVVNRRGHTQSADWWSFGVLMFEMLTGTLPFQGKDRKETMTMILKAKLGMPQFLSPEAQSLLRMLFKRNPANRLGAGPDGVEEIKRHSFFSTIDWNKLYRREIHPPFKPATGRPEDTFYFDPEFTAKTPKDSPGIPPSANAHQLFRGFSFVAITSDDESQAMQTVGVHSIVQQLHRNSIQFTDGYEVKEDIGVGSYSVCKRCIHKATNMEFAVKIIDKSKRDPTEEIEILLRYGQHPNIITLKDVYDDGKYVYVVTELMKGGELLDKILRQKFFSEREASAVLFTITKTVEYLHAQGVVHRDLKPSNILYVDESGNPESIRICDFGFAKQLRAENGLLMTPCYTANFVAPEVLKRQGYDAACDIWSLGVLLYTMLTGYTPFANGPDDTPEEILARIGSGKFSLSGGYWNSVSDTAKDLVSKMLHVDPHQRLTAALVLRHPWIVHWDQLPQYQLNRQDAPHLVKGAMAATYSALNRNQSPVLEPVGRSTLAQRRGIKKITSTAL
T8 sequence (P78362 whole entry, species assumed): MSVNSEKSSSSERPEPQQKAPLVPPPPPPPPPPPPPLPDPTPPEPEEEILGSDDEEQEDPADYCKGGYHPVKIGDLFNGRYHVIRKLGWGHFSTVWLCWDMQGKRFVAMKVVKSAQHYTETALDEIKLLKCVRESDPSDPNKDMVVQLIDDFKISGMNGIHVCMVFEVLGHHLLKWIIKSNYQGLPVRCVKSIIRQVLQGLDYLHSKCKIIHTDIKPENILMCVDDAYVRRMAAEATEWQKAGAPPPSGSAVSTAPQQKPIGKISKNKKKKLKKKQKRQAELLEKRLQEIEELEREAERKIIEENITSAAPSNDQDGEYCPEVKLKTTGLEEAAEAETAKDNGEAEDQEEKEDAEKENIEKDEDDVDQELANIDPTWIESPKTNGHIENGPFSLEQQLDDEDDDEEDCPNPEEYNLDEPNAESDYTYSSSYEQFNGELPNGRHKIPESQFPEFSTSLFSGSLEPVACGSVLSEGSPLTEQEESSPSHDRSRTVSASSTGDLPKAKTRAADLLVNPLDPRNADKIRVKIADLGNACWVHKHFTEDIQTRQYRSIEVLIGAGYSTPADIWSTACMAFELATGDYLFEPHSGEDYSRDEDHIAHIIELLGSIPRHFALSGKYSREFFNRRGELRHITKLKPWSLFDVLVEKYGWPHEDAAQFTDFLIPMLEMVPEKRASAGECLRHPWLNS

On to `C=CC(=O)N1CCCC(c2c(F)cc(C(N)=O)c3[nH]c4c(c23)CCCCC4)C1` (single isomer, unassigned) [Compound 5-6], for which the inhibition at 1 µM against EPHA6 is 6.1%; at GRK1, 16.4%; at GRK3, -25.6%; at MAP4K4/HGK, -22.7%; against MAP4K5/KSH1 it was -1.1%; on RPS6KA3/RSK2 it was 5.8%. Further, the figures for the inhibition at 1 µM against SK2 and on SRPK2 were -0.1% and 24.9%, respectively.
For `C=CC(=O)N1CCC[C@@H](c2c(F)cc(C(N)=O)c3[nH]c4c(c23)CC2(CC4)CC2)C1` [Compound 6-2, (S)-5-(1-acryloylpiperidin-3-yl)-6-fluoro-1,2,4,9-tetrahydrospiro[carbazole-3,1′-cyclopropane]-8-carboxamide], the inhibition at 1 µM against EPHA6 is -14.6%; at GRK1 it was -46.1%; on GRK3, -48.3%; on MAP4K4/HGK, 2.9%; against MAP4K5/KSH1, 4.1%; at RPS6KA3/RSK2, -34.6%. The values for the inhibition at 1 µM on SK2 and against SRPK2 were 7.7% and -60.6%, respectively.
For `C=CC(=O)N1CCC[C@@H](c2c(F)cc(C(N)=O)c3[nH]c4c(c23)CCC4)C1` [Compound 10-2, (S)-8-(1-acryloylpiperidin-3-yl)-7-fluoro-1,2,3,4-tetrahydrocyclo-penta[b]indole-5-carboxamide], the inhibition at 1 µM against EPHA6 was -17.7%; against GRK1, -1.4%; against GRK3, -42.7%; at MAP4K4/HGK, -10.5%; at MAP4K5/KSH1 it was -4.9%; against RPS6KA3/RSK2, -27.7%. Besides, the inhibition at 1 µM against SK2 is 23.9%; on SRPK2, -29.1%.
